Assays:
GISA 700699 = assay: microbroth dilution MIC
Cryptococcus neoformans = assay: microbroth dilution MIC
[1] = test system: Staphylococcus aureus ATCC 33591 (MRSA); assay: microbroth dilution MIC; assay type: cell-based; details: for MIC MRSA 33591: second listing in Table 4
Vibrio fischeri PIC 345 = assay: disk diffusion assay; assay type: cell-based; details: 10 micrograms per disk; ciprofloxacin 5, vancomycin 30 micrograms per disk; 35° C.
[2] = test system: Cell wall synthesis in Bacillus subtilis; assay: macromolecular synthesis whole cell assay, [3H]N-acetyl glucosamine incorporation; assay type: cell-based; details: for % [3H]N-acetyl glucosamine (Cell wall synthesis) incorporation of that of the untreated culture: 1×MIC
[3] = test system: Pseudomonas aeruginosa ATCC 27853; assay: disk diffusion assay; assay type: cell-based; details: 10 micrograms per disk; ciprofloxacin 5, vancomycin 30 micrograms per disk; 35° C. Further: key: R = resistant.
[4] = test system: DNA synthesis in Bacillus subtilis; assay: macromolecular synthesis whole cell assay, [3H]thymidine incorporation; assay type: cell-based; details: for % [3H]thymidine (DNA synthesis) incorporation of that of the untreated culture: 1×MIC
[5] = test system: Neisseria gonnorhea ATCC 49226; assay: disk diffusion assay; assay type: cell-based; details: 10 micrograms per disk; ciprofloxacin 5, vancomycin 30 micrograms per disk; GC agar with 1% growth supplement with 5% CO2
[6] = test system: Acinetobacter sp. ATCC 49137; assay: disk diffusion assay; assay type: cell-based; details: 10 micrograms per disk; ciprofloxacin 5, vancomycin 30 micrograms per disk; grown at 30° C.
[7] = test system: Shigella dysenteriae ATCC 11835; assay: disk diffusion assay; assay type: cell-based; details: 10 micrograms per disk; 35° C.
S. epidermis ATCC 12228 = assay: disk diffusion assay; assay type: cell-based, Staphylococcus epidermidis; details: 10 micrograms per disk; 35° C.
[8] = test system: Listeria monocytogenes 19115; assay: microbroth dilution MIC; assay type: cell-based
Bacillus anthracis K8902 = assay type: cell-based; details: 10 micrograms per disk; ciprofloxacin 5, vancomycin 30 micrograms per disk; 35° C.
[9] = test system: Staphylococcus aureus ATCC 29213; assay: disk diffusion assay; assay type: cell-based; details: 10 micrograms per disk; ciprofloxacin 5, vancomycin 30 micrograms per disk; 35° C.
B. subtilis 1A757 = assay: microbe, parasite or virus in culture; assay type: cell-based, Bacillus subtilis; details: for increase of MICs when DNA was added: Bacillus subtilis and Staphylococcus aureus, 20 micrograms per well sheared salmon sperm DNA
[10] = test system: Enterococcus faecalis ATCC 29212; assay: disk diffusion assay; assay type: cell-based; details: 10 micrograms per disk; ciprofloxacin 5, vancomycin 30 micrograms per disk; 35° C.
Bacillus cereus 4342 = assay: microbroth dilution MIC; assay type: cell-based
[11] = test system: Enterococcus faecium ATCC 49624; assay: disk diffusion assay; assay type: cell-based; details: 10 micrograms per disk; ciprofloxacin 5, vancomycin 30 micrograms per disk; 35° C.
[12] = test system: Protein synthesis in Bacillus subtilis; assay: macromolecular synthesis whole cell assay, [3H]amino acid mixture incorporation; assay type: cell-based; details: for % [3H]amino acid mixture (Protein synthesis) incorporation of that of the untreated culture: 1×MIC
S. aureus ATCC 6583P = assay: MIC with and without double stranded DNA; assay type: cell-based, Staphylococcus aureus
Bacillus subtilis = assay: microbroth dilution MIC
[13] = test system: Streptococcus pneumoniae 700674; assay: microbroth dilution MIC
[14] = test system: Candida tropicalis ATCC 750; assay: disk diffusion assay; assay type: cell-based; details: 10 micrograms per disk; 35° C. Further: key: R = resistant.
[15] = test system: Candida glabrata ATCC 2001; assay: disk diffusion assay; assay type: cell-based; details: 10 micrograms per disk; 35° C. Further: key: R = resistant.
[16] = test system: RNA synthesis in Bacillus subtilis; assay: macromolecular synthesis whole cell assay, [3H]uridine incorporation; assay type: cell-based; details: for % [3H]uridine (RNA synthesis) incorporation of that of the untreated culture: 1×MIC
[17] = test system: Enterococcus faecium ATCC 51559; assay: disk diffusion assay; assay type: cell-based; details: 10 micrograms per disk; ciprofloxacin 5, vancomycin 30 micrograms per disk; 35° C.
[18] = test system: Enterococcus faecalis ATCC 51299; assay: disk diffusion assay; assay type: cell-based; details: 10 micrograms per disk; ciprofloxacin 5, vancomycin 30 micrograms per disk; 35° C.
[19] = test system: Candida parasilosis ATCC 22019; assay: disk diffusion assay; assay type: cell-based, Candida parapsilosis; details: 10 micrograms per disk; 35° C. Further: key: R = resistant.
[20] = test system: Staphyloccus aureus MH II Eli Lilly Co.; assay: microbroth dilution MIC; details: drug sensitive strain
Candida albicans = assay: microbroth dilution MIC
[21] = DNA +, 20 micrograms per well of sheared salmon sperm DNA

## munumbicin B
GISA 700699
  MIC GISA 700699: 2 micrograms/ml
Cryptococcus neoformans
  MIC Cryptococcus neoformans: 10 micrograms/ml
[1]; methicillin resistant strain, first listing in Table 4
  MIC Staphylococcus aureus ATCC 33591: 2.5 micrograms/ml
[1]
  MIC MRSA 33591: 0.5 micrograms/ml
Vibrio fischeri PIC 345
  diameter of the zone of inhibition, Vibrio fischeri PIC 345: 16 mm
[2]
  effect on cell wall synthesis (in words): some inhibitory effect
[2]; 5 min
  % [3H]N-acetyl glucosamine (Cell wall synthesis) incorporation of that of the untreated culture: 81%
[2]; 10 min
  % [3H]N-acetyl glucosamine (Cell wall synthesis) incorporation of that of the untreated culture: 59%
[3]
  diameter of the zone of inhibition, Pseudomonas aeruginosa ATCC 27853: R
[4]
  effect on DNA synthesis (in words): no effect
[4]; 5 min
  % [3H]thymidine (DNA synthesis) incorporation of that of the untreated culture: 93%
[4]; 10 min
  % [3H]thymidine (DNA synthesis) incorporation of that of the untreated culture: 102%
[5]
  diameter of the zone of inhibition, Neisseria gonnorhea ATCC 49226: 14 mm
[6]
  diameter of the zone of inhibition, Acinetobacter sp. ATCC 49137: R
[7]
  diameter of the zone of inhibition, Shigella dysenteriae ATCC 11835: R
S. epidermis ATCC 12228
  diameter of the zone of inhibition, S. epidermis ATCC 12228: 21 mm
[8]
  MIC Listeria monocytogenes 19115: 4 micrograms/ml
Bacillus anthracis K8902
  diameter of the zone of inhibition, Bacillus anthracis K8902: 18 mm
[9]
  diameter of the zone of inhibition, Staphylococcus aureus ATCC 29213: 15 mm
B. subtilis 1A757
  increase of MICs when DNA was added: affected
B. subtilis 1A757; [21]
  MIC B. subtilis 1A757: >32 micrograms/ml
B. subtilis 1A757; concentration used in macromolecular synthesis assay
  1×MIC against Bacillus subtilis: 2 micrograms/ml
[10]
  diameter of the zone of inhibition, Enterococcus faecalis ATCC 29212: 18 mm
Bacillus cereus 4342
  MIC Bacillus cereus 4342: 0.5 micrograms/ml
[11]
  diameter of the zone of inhibition, Enterococcus faecium ATCC 49624: 21 mm
[12]
  effect on protein synthesis (in words): milder inhibitory effect
[12]; 5 min
  % [3H]amino acid mixture (Protein synthesis) incorporation of that of the untreated culture: 85%
[12]; 10 min
  % [3H]amino acid mixture (Protein synthesis) incorporation of that of the untreated culture: 74%
S. aureus ATCC 6583P; [21]
  MIC S. aureus ATCC 6583P: >32 micrograms/ml
S. aureus ATCC 6583P; DNA −
  MIC S. aureus ATCC 6583P: 2 micrograms/ml
Bacillus subtilis; first listing in Table 4
  MIC Bacillus subtilis: 8 micrograms/ml
Bacillus subtilis; second listing in Table 4
  MIC Bacillus subtilis: 2 micrograms/ml
[13]
  MIC Streptococcus pneumoniae 700674: 0.5 micrograms/ml
[14]
  diameter of the zone of inhibition, Candida tropicalis ATCC 750: R
[15]
  diameter of the zone of inhibition, Candida glabrata ATCC 2001: R
[16]
  effect on RNA synthesis (in words): some inhibitory effect
[16]; 5 min
  % [3H]uridine (RNA synthesis) incorporation of that of the untreated culture: 64%
[16]; 10 min
  % [3H]uridine (RNA synthesis) incorporation of that of the untreated culture: 59%
[17]
  diameter of the zone of inhibition, Enterococcus faecium ATCC 51559: 26 mm
[18]
  diameter of the zone of inhibition, Enterococcus faecalis ATCC 51299: 23 mm
[19]
  diameter of the zone of inhibition, Candida parasilosis ATCC 22019: R

## munumbicin C
GISA 700699
  MIC GISA 700699: 2 micrograms/ml
Cryptococcus neoformans
  MIC Cryptococcus neoformans: 10 micrograms/ml
[1]
  MIC MRSA 33591: 0.5 micrograms/ml
Vibrio fischeri PIC 345
  diameter of the zone of inhibition, Vibrio fischeri PIC 345: 9 mm
[3]
  diameter of the zone of inhibition, Pseudomonas aeruginosa ATCC 27853: R
[5]
  diameter of the zone of inhibition, Neisseria gonnorhea ATCC 49226: 8 mm
[6]
  diameter of the zone of inhibition, Acinetobacter sp. ATCC 49137: R
[7]
  diameter of the zone of inhibition, Shigella dysenteriae ATCC 11835: R
[20]
  MIC Staphyloccus aureus MH II Eli Lilly Co.: 0.4 micrograms/ml
S. epidermis ATCC 12228
  diameter of the zone of inhibition, S. epidermis ATCC 12228: R
[8]
  MIC Listeria monocytogenes 19115: 2 micrograms/ml
Bacillus anthracis K8902
  diameter of the zone of inhibition, Bacillus anthracis K8902: R
[9]
  diameter of the zone of inhibition, Staphylococcus aureus ATCC 29213: R
B. subtilis 1A757
  increase of MICs when DNA was added: affected
B. subtilis 1A757; [21]
  MIC B. subtilis 1A757: >32 micrograms/ml
B. subtilis 1A757; DNA −
  MIC B. subtilis 1A757: 0.5 micrograms/ml
[10]
  diameter of the zone of inhibition, Enterococcus faecalis ATCC 29212: 20 mm
Bacillus cereus 4342
  MIC Bacillus cereus 4342: 0.25 micrograms/ml
[11]
  diameter of the zone of inhibition, Enterococcus faecium ATCC 49624: 23 mm
Candida albicans
  MIC Candida albicans: >10 micrograms/ml
Human red blood cells
  concentration causing detectable lysis of human red blood cells: > 80 micrograms/ml
S. aureus ATCC 6583P; [21]
  MIC S. aureus ATCC 6583P: >32 micrograms/ml
S. aureus ATCC 6583P; DNA −
  MIC S. aureus ATCC 6583P: 0.5 micrograms/ml
Bacillus subtilis; first listing in Table 4
  MIC Bacillus subtilis: >8 micrograms/ml
Bacillus subtilis; second listing in Table 4
  MIC Bacillus subtilis: 0.25 micrograms/ml
[13]
  MIC Streptococcus pneumoniae 700674: 0.125 micrograms/ml
[14]
  diameter of the zone of inhibition, Candida tropicalis ATCC 750: R
[15]
  diameter of the zone of inhibition, Candida glabrata ATCC 2001: R
[17]
  diameter of the zone of inhibition, Enterococcus faecium ATCC 51559: 28 mm
[18]
  diameter of the zone of inhibition, Enterococcus faecalis ATCC 51299: 22 mm
[19]
  diameter of the zone of inhibition, Candida parasilosis ATCC 22019: R

— patent US7259004B1, “Endophytic streptomycetes from higher plants with biological activity” (Montana State University, priority 2002, dated 2007)
